For series [1] the following is noted: cited from earlier work.
Series [2] deals with estradiol (Ez). The experiment in a line: Test (1) serum estradiol (Ez) reduction, subcutaneous administration, PMSG-treated rats, radioimmunoassay. Type of series: in vivo, SD strain female rats. The settings on record: for Ez-reducing effect: compared with the control group, in both cases of subcutaneous administration (50 mg/kg) and oral administration (100 mg/kg, Test (2)); for Ez concentration in serum (average): subcutaneous, 50 mg/kg, 3 hours after administration, PMSG-treated rats, 5 per group, control (HPC) 0.572. The protocol:
(§1) In this Test Example, effects of administration of 6-OA and 6-enol ester compounds thereof on estradiol (Ez) reduction were examined.
20 SD strain female rats of 8-week old were used as test animals. They were divided into four groups each consisting of 5 rats. To all the rats was subcutaneously injected pregnant mare serum gonatropin (PMSG) in an amount of 100 IU/body once every other day (6 times in total). In the beforenoon of the next day of the final (6th) administration of PMSG, 0.5 ml of a solvent, 50 mg/kg of 6-OA, 50 mg/kg of 6-OAp and 50 mg/kg of 6-OAb were subcutaneously administered to group I (control group), group II, group III and group IV, respectively.
After 3 hours from the administration, the rats were subjected to abdomen opening under etherization and then to exsanguination from the main vein. The blood collected from each rat was subjected to serum separation, and the Ez in the serum was determined by radioimmunoassay.
A physiological saline solution containing 0.3% of hydroxy propyl cellulose (HPC) was used as the solvent. 6-OA, 6-OAp and 6-OAb were each suspended in the solvent in such a concentration that the administration amount of the resulting suspension per rat became 0.5 ml.

For series [3], the system named is estradiol (Ez). The experiment in a line: Test (2) serum estradiol (Ez) reduction, oral administration, PMSG-treated rats, radioimmunoassay. The series is classed as in vivo, SD strain female rats. The following applies: 100 mg/kg, 6 hours after administration, 5 per group, control (HPC) 0.522. The protocol: as §1
The type, age, number and grouping of test animals were the same as in Test (1).
All of the rats were subcutaneously injected with PMSG, in the same manner as in Test (1), in an amount of 100 IU/body once every other day (6 times in total).
Before noon of the next day of the final (6th) administration of PMSG, 0.5 ml of a solvent, 100 mg/kg of 6-OA, 100 mg/kg of 6-OAp and 100 mg/kg of 6-OAb were orally administered to group I (control group), group II, group III and group IV, respectively.
Aftr 6 hours from the administration, the rats were subjected to exsanguination. The blood collected from each rat was subjected to serum separation, and the Ez in the serum was determined by radioimmunoassay.
The solvent used was the same as in Test (1). 6-OA, 6-OAp and 6-OAb were each suspended in the solvent in such a concentration that the administration amount of the resulting suspension per rat became 0.5 ml.

For series [4], the system named is experimental endometriosis. The experiment in a line: effect on model rats of endometriosis (cysts in endometrium autoplanted under renal capsule). The following applies: 100 mg/kg/day. The series is classed as in vivo, SD strain female rats. From the text:
In this Test example, effect of administration of 6-OAp on model rats of endometriosis was examined.
SD strain female rats of 7-week old weighing 170-210 g were used as test animals. In these rats, an endometrial segment (about 5 mm×5 mm) was removed from the left uterine horn and autoplanted under the left renal capsule, and formation of cysts in the transplanted endometrium was examined. Those rats which had developed cysts of 0.5-2.0 mm in height in the transplanted endometrium, were used for test.
The rats were divided into three groups. To group I (control group) was orally administered a physiological saline solution containing 0.3% of hydroxy propyl cellulose (HPC) daily in an amount of 0.5 ml/day. To group II was orally administered 6-OAp daily in an amount of 100 mg/kg/day. In this case, 6-OAp was suspended in a physiological saline solution containing 0.3% of HPC in such a concentration that the administration amount of the resulting suspension per rat became 0.5 ml. Group III (positive control) was subjected to ovary removal.
Each rat was subjected to abdomen opening after 3 weeks from the start of administration or after the ovary removal and examined for the presence of cysts.
Chi-square test was used for the statistical analysis of the test data obtained.

Series [5] deals with aromatase (a steroidogenesis enzyme). The following applies: known; Japanese Patent Application Laid-Open Nos. 192794/1988, 131193/1989; cited from earlier work.
The nature of series [6]: animal toxicity tests (LD50).

Data on five compounds can be found in patent US5166200A, “Treatment of endometriosis” (Snow Brand Milk Products Company, Limited, priority 1990, dated 1992).

“Also recorded” adds a separate entry of the source. Like-named read-outs stand apart in the source and are kept apart here. Some results are limits rather than exact numbers.

On to `CCNC(=O)[C@@H]1CCCN1C(=O)[C@H](CCCNC(=N)N)NC(=O)[C@H](CC(C)C)NC(=O)[C@@H](COC(C)(C)C)NC(=O)[C@H](Cc1ccc(O)cc1)NC(=O)[C@H](CO)NC(=O)[C@H](Cc1c[nH]c2ccccc12)NC(=O)[C@H](Cc1cnc[nH]1)NC(=O)[C@@H]1CCC(=O)N1` [buserelin], for which, in series [1] (treatment of endometriosis, prior art), the side effects entry was “hyposexuality, hot flushes and the like”.
Consider `C[C@]12CCC(=O)C=C1C(OC(=O)c1ccccc1)=C[C@@H]1[C@@H]2CC[C@]2(C)C(=O)CC[C@@]12O` [6-OAb], for which, in the series on estradiol (Ez) [2], the Ez-reducing effect entry was “strong Ez-reducing effect” and the “Ez concentration in serum (average)” value was 0.390 ng/mL. The “Ez concentration in serum (average)” value in the series with estradiol (Ez) [3] amounted to 0.422 ng/mL.
`C#C[C@]1(O)CC[C@H]2[C@@H]3CCC4=Cc5oncc5C[C@]4(C)[C@H]3CC[C@@]21C` [danazol]: the side effects entry in series [1] (in vivo) is “dyshepatia, masculinization and the like”.
Regarding `CCC(=O)OC1=C[C@@H]2[C@H](CC[C@]3(C)C(=O)CC[C@@]23O)[C@@]2(C)CCC(=O)C=C12` [6-OAp, 14α-Hydroxy-androsta-4,6-diene-3,17-dione-6-propionate], in the series on estradiol (Ez) [2], the Ez-reducing effect entry is “strong Ez-reducing effect; also recorded: stronger Ez-reducing effect than the 6-OA group and the 6-OAb group”; the “Ez concentration in serum (average)” value is 0.230 ng/mL. Further, the “Disappearance (of cysts)” value in series [4] (oral, 3 weeks, control 9%, ovary-removed 100, significant at 5% level relative to control group (Chi-square)) amounted to 41%. The Cysts absent in series [4] (oral, 3 weeks, total 22 rats, control 2 of 22, significant at 5% level relative to control (Chi-square)) was 9 rats. This compound also yielded a Cysts present in series [4] (oral, 3 weeks, total 22 rats, control 20 of 22) of 13 rats. In addition, the “effect on experimental endometriosis of rats” value in series [4] (orally administered daily for 3 weeks) is on record as “effective”. Also, in the series on estradiol (Ez) [3], the “Ez concentration in serum (average)” value was 0.226 ng/mL.
In general, LD50 refers to the dose expected to kill half of the subjects tested. A higher LD50 goes with a less toxic substance. Turning to `C[C@]12CCC(=O)C=C1C(=O)C[C@@H]1[C@@H]2CC[C@]2(C)C(=O)CC[C@@]12O` [6-OA, 14α-Hydroxy-4-androstene-3,6,17-trione], in the series with estradiol (Ez) [2], the Ez-reducing effect result was “strong Ez-reducing effect” and the “Ez concentration in serum (average)” value was 0.262 ng/mL. The aromatase-inhibitory activity entry in series [5] is “strong aromatase-inhibitory activity”. In series [6] (animal tests), the toxicity entry is on record as “very low toxicity”. The LD50 in series [6] (in vivo) is over 2000 mg/kg. Further, the “Ez concentration in serum (average)” value in the series on estradiol (Ez) [3] worked out at 0.291 ng/mL.
